In patent US20030215462A1, “Use of UGT inhibitors to increase bioavailability” (priority 2001, published 2003):
Several values for one entry are separate records, joined by “and”; a condition that tells them apart may be missing. Equal entries are not always repeated.

Legend:
[1] = tested on: T1, UGT enzymes of human liver microsomes; assay: Kinetic and Ki studies of inhibitors of 7-HFC glucuronidation in human liver microsomes; assay type: biochemical; details: 7-HFC 20-500 μM; for Km: read-out: Km of 7-HFC glucuronidation (fit of the experiment with this inhibitor)
T1 construct: percentage of control metabolism, 7-HFC glucuronidation; percentage of control metabolism, 7-HFC glucuronidation

[2] = target: T2, UGT enzymes of human liver microsomes (Homo sapiens, UniProt P16662); assay: Inhibition of zidovudine glucuronidation in human liver microsomes; assay type: biochemical; details: liver lot 062101
T2 construct: residual metabolism (percentage of control), zidovudine glucuronidation; other: liver lot 062101; residual metabolism (percentage of control), zidovudine glucuronidation; residual metabolism (percentage of control)
T2 sequence (P16662 1-529): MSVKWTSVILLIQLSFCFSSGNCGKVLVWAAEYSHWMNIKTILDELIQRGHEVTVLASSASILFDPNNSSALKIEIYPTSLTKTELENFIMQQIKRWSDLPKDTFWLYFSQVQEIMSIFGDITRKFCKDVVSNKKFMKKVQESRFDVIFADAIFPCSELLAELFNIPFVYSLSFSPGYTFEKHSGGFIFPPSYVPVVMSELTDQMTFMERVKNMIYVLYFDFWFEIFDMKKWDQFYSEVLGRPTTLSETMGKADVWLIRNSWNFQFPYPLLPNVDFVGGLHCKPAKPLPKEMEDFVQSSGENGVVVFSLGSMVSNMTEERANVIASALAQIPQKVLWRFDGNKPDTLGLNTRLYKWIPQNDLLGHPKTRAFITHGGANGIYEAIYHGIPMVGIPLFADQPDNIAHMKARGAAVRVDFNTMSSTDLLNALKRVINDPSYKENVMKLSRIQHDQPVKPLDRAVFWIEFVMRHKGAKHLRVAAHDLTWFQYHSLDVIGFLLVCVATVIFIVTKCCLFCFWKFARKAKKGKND
Procedure: Compounds were eluted using a binary solvent gradient system where solvent A was dilute phosphoric acid (pH 3) and solvent B was acetonitrile.
Standardized incubations utilized 500 μM zidovudine substrate, 1 mg/ml microsomal protein, 5 mM UDPGA and a 30 min incubation time. […] Int.

[3] = tested on: T3, UGT enzymes of human liver microsomes; assay: Inhibition of labetalol glucuronidation (LG1, LG2) in human liver microsomes; assay type: biochemical; details: labetalol 50 μM
T3 construct: residual metabolism (percentage of control), labetalol LG1; other: labetalol 50 μM; residual metabolism (percentage of control), labetalol LG1; residual metabolism (percentage of control), labetalol LG2; inhi
Procedure: Supernatants were analyzed by HPLC with fluorescence detection.
Compounds were eluted using a binary solvent gradient system where solvent A was 5:5:90 tetrahydrofuran-acetonitrile-(NH4)2HPO4 50 mM, while solvent B was 25:25:50 tetrahydrofuran-acetonitrile-(NH4)2HPO4 50 mM. Solvent flow rate was 0.75 ml/min and the column temperature was ambient. […] Labetalol and metabolites were measured by fluorescence detection using a Jasco model FP920 detector. Excitation and emission wavelengths were 370 nm 418 nm respectively. Retention times for salicylamide internal standard and labetalol were 6.6 min and 15.0 min respectively.

[4] = tested on: T4, UGT enzymes of human liver microsomes; assay: Inhibition of 2ME2 glucuronidation (MG1, MG2) in human liver microsomes; assay type: biochemical; details: liver 062101, 2ME2 50 μM
T4 construct: other: liver 062101
Source text: Compounds were eluted using a binary solvent gradient system where solvent A was dilute phosphoric acid (pH 3) and solvent B was 80:20 acetonitrile-methanol. […] Detection was at 280 nm.

UGT1A1 = target: T5, UGT1A1 (Homo sapiens, UniProt P22309); assay: Inhibition of raloxifene glucuronidation by recombinant UGT1A1 Supersomes; details: human; for activity at 15 min, 25 µM: inhibitor 25 μM; for activity at 15 min, 50 µM: inhibitor 50 μM; for activity at 15 min, 10 µM: inhibitor 10 μM
T5 sequence (P22309 26-533): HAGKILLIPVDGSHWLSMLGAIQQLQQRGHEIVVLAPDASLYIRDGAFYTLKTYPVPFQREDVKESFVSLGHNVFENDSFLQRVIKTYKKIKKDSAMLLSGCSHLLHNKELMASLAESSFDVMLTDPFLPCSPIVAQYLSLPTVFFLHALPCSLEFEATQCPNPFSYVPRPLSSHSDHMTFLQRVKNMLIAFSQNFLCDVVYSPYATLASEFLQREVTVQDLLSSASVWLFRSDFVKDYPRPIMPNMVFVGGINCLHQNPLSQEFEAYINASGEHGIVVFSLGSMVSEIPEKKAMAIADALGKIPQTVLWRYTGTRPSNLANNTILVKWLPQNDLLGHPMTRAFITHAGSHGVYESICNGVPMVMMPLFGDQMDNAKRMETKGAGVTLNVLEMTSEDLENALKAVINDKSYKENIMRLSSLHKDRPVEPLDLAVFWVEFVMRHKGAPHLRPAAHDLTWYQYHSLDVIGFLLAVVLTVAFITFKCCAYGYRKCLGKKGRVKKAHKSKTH
Procedure: (§1) Compounds were eluted using a binary solvent gradient system. Solvent A was water brought to pH 8 with NH4OH. Solvent B was methanol. Solvent flow rate was 1 ml/min and the column temperature was maintained at 50° C. Detection was at 280 nm. […] The system was then returned to the initial conditions and equilibrated for 3 min.

UGT1A8 = target: T6, UGT1A8 (Homo sapiens, UniProt Q9HAW9); assay: Inhibition of raloxifene glucuronidation by recombinant UGT1A8 Supersomes; details: human, Supersomes with recombinant human UGT1A8, pH 7.5, probe raloxifene 50 μM; for activity at 15 min, 50 µM: inhibitor 50 μM; for activity at 15 min, 10 µM: inhibitor 10 μM
T6 sequence (Q9HAW9 26-530): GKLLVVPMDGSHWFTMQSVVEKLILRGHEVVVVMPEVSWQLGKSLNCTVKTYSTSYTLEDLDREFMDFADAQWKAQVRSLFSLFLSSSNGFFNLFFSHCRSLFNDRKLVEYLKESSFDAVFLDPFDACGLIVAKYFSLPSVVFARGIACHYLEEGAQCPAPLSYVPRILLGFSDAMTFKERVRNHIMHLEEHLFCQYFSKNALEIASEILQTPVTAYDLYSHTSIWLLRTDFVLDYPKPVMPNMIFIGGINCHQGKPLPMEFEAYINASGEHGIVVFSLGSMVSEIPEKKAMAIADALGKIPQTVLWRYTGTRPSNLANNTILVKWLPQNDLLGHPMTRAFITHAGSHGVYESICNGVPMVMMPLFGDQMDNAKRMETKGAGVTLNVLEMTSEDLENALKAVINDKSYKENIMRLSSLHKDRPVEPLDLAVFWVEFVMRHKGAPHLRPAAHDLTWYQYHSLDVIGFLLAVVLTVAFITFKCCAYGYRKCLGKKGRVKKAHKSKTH
Procedure: as §1

[5] = Supersomes with recombinant human UGT1A1, pH 7.5, probe raloxifene 50 μM, formation of glucuronide G1
[6] = Supersomes with recombinant human UGT1A1, pH 7.5, probe raloxifene 50 μM, formation of glucuronide G1, % of control metabolism, raloxifene G1, UGT1A1
[7] = Supersomes with recombinant human UGT1A1, pH 7.5, probe raloxifene 50 μM, formation of glucuronide G1, Inhibition of raloxifene glucuronidation, G1, UGT1A1, G1, raloxifene 50 μM, 250 μg/ml Supersomes, 1 mM UDPGA, 15 min
[8] = Supersomes with recombinant human UGT1A1, pH 7.5, probe raloxifene 50 μM, formation of glucuronide G2, % of control metabolism, raloxifene G2, UGT1A1
[9] = recombinant UGT1A1 Supersomes, pH 7.5, probe raloxifene 50 μM (formation of glucuronide G2)
[10] = recombinant UGT1A1 Supersomes, pH 7.5, probe raloxifene 50 μM (formation of glucuronide G2), Inhibition of raloxifene glucuronidation, G2, UGT1A1, G2, raloxifene 50 μM, 250 μg/ml Supersomes, 1 mM UDPGA, 15 min
[11] = formation of glucuronide G1, % of control metabolism, raloxifene G1, UGT1A8
[12] = formation of glucuronide G2, % of control metabolism, raloxifene G2, UGT1A8

SMILES | Vmax of 7-HFC glucuronidation (fit of the experiment with this inhibitor) [1] [nmol/min/mg] | Km [1] [µM] | residual metabolism (percentage of control), zidovudine glucuronidation ([2]; inhibitor 50 μM) | residual metabolism (percentage of control), zidovudine glucuronidation ([2]; inhibitor 100 μM) | residual metabolism (percentage of control), zidovudine glucuronidation ([2]; inhibitor 200 μM) | residual metabolism (percentage of control), labetalol LG1 ([3]; inhibitor 50 μM) | residual metabolism (percentage of control), labetalol LG2 ([3]; inhibitor 50 μM) | activity at 15 min (UGT1A1; [5]) [%] | activity at 15 min, 25 µM (UGT1A1; [6]) [%] | activity at 15 min, 50 µM (UGT1A1; [6]) [%] | activity at 15 min, 25 µM (UGT1A1; [7]) [%] | activity at 15 min, 50 µM (UGT1A1; [7]) [%] | activity at 15 min, 25 µM (UGT1A1; [8]) [%] | activity at 15 min, 50 µM (UGT1A1; [8]) [%] | activity at 15 min (UGT1A1; [9]) [%] | activity at 15 min, 25 µM (UGT1A1; [10]) [%] | activity at 15 min, 50 µM (UGT1A1; [10]) [%] | also measured
O=C(O[C@@H]1Cc2c(O)cc(O)cc2O[C@H]1c1cc(O)c(O)c(O)c1)c1cc(O)c(O)c(O)c1 [Gallocatechin gallate] | 54 ± 3 | 75 ± 7 | 66 (3) % | 56 (1) % and 59 (3) % | 49 (1) % and 40 (2) % | 60 (5) % | 55 (8) % | 79 | 52 | 30 | 52 | 30 | 54 | 32 | 76 | 54 | 32 | residual metabolism (% of control), 2ME2 MG1 ([4]; inhibitor 25 μM): 33 (1) %; residual metabolism (% of control), 2ME2 MG2 ([4]; inhibitor 25 μM): 73 (1) %; residual metabolism (% of control), 2ME2 MG1 ([4]; inhibitor 50 μM): 21 (2) %; residual metabolism (% of control), 2ME2 MG2 ([4]; inhibitor 50 μM): 61 (1) %; residual metabolism (% of control), 2ME2 MG1 ([4]; inhibitor 100 μM): 9 (1) %; residual metabolism (% of control), 2ME2 MG2 ([4]; inhibitor 100 μM): 36 (1) %; activity at 15 min, 50 µM (UGT1A8; [11]): 36%; activity at 15 min, 50 µM (UGT1A8; [12]): 35%
CC/C(=C(/CC)c1ccc(O)cc1)c1ccc(O)cc1 [Diethylstilbestrol, reference compound] | 64 ± 4 | 87 ± 7 | 50 (4) % and 44 (2) % | 34 (4) % | 15 (1) % | 23 (3) % | 29 (8) % | 59 | 26 | 12 | 26 | 12 | 41 | 27 | 72 | 41 | 27 | residual metabolism (percentage of control), zidovudine glucuronidation ([2]; inhibitor 500 μM): 0 (0) %; residual metabolism (percentage of control), labetalol LG1 ([3]; inhibitor 100 μM): 1 (3) % and 5 (3) %; residual metabolism (percentage of control), labetalol LG2 ([3]; inhibitor 100 μM): 11 (1) % and 8 (1) %; activity at 15 min, 10 µM (UGT1A1; [6]): 59%; activity at 15 min, 10 µM (UGT1A1; [8]): 72%; activity at 15 min, 10 µM (UGT1A8; [11]): 156%; activity at 15 min, 10 µM (UGT1A8; [12]): 73%
